The values below come from publication PMC12336439 (Archiv Der Pharmazie, 2025).

The target of test [1] is T1, USP7asoc (Homo sapiens, UniProt Q93009, C300S/C315S/C334S/C478S/C488S/C510S).
T1 construct: (208‐560, C300/315/334/448/478/510S); made in house
Also on record: method as in PMID 40165995. The conditions noted are these: 24 h incubation at 20°C, ratio 1:31.25; spectra reported previously; cited from earlier work.

In test [2] the target is T2, USP7 (Homo sapiens, UniProt Q93009).
T2 construct: USP7 catalytic domain (USP7CD) (208‐560); made in house
T2 sequence (Q93009 with tags, fused parts or gaps): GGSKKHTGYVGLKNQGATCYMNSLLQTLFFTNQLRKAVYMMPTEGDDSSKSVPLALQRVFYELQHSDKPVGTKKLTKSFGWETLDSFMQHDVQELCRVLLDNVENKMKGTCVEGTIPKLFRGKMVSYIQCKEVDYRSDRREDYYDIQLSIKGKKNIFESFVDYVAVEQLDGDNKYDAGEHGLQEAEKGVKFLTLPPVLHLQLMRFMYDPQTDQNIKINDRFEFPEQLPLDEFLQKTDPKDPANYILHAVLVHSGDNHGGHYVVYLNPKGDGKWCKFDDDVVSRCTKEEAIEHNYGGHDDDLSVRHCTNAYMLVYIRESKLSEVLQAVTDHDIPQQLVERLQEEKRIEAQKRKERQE
Also on record: method as in PMID 40165995. The conditions noted are these: 24 h incubation at 20°C, ratio 1:31.25; spectra reported previously; cited from earlier work.

For test [3], the target named is T3, USP7asoc (active site only cysteine) (Homo sapiens, UniProt Q93009, C300S/C315S/C334S/C478S/C488S/C510S).
T3 construct: (208‐560, C300/315/334/448/478/510S); made in house
T3 sequence (Q93009 with tags, fused parts or gaps C300S/C315S/C334S/C478S/C488S/C510S): as the sequence (Q93009 with tags, fused parts or gaps) above, with C96S, C111S, C130S, C274S, C284S, C306S counted along it
The experiment in a line: Differential scanning fluorimetry (DSF), melting temperature shift of USP7asoc mutant. In kind it is binding. The conditions noted are these: 8 µM protein, 250 µM compound (1:31.25). Here is the method: USP7asoc only retains the catalytic Cys223 while all the other six cysteines are mutated to serine. DSF was selected for initial assessment since it is an efficient and rapid primary screening method readily available to our lab. […] An important consideration when assessing covalent inhibitors is the time dependence of covalent target occupancy and thus potency, which is determined by the reaction kinetics of the covalent binding event. To allow for drawing conclusions on compounds with slower reaction kinetics, incubation times of 30 min, 4 h, and 24 h at 20°C were chosen for the DSF screen with USP7 (Table 1 and Figures 2 and 3). The threshold at which compounds were considered (de‐)stabilizers was defined at 0.5°C. In parallel, the intrinsic reactivity of a set of representative compounds was evaluated in a glutathione reactivity assay. […] The expression and purification of USP7 catalytic domain (USP7CD) (208‐560) and USP7asoc (active site only cysteine) by using a pET24a(+)_HLT_USP7 construct were performed as previously described. […] For the USP7asoc, six of the seven cysteines are mutated to serines (208‐560, C300/315/334/448/478/510S). All utilized protein sequences are depicted in Supporting Information S2: Table S.3.1. The melting temperatures of USP7 and USP7asoc in the presence or absence of fragments were determined by DSF on a Qiagen Rotor‐Q Model‐5‐Plex HRM real‐time PCR instrument (Qiagen, Hilden, Germany). SYPRO Orange (Life Technologies Corporation, Eugene, OR, USA) was used as a fluorescent dye at a final concentration of 5x. The protein concentration was 8 µM, and the final compound concentration was 250 µM, corresponding to a protein‐to‐compound ratio of 1:31.25. All compounds were dissolved in dimethyl sulfoxide (DMSO) and the proteins in Tris buffer (25 mM Tris pH 8.0, 150 mM NaCl, 5 mM TCEP, 5% (v/v) DMSO). All measurements were performed after 30 min, 4 h, and 24 h of incubation and at least in triplicate. DSF experiments were carried out with a constant heating rate of 270°C/h. The temperature was ramped from 28°C to 60°C–70°C with excitation and emission filters set at 470 nm and 610 nm, respectively. The melting temperatures (T m) of USP7 and USP7asoc were determined from the maxima of the first derivatives of the melting curves in OriginPro2020 (OriginLab, Northampton, MA, USA). The ∆T m was calculated by subtraction of the T m of the protein sample with pure DMSO from the T m of the protein sample mixed with compound. Error propagation was used to average multiple runs for a compound. A compound was considered to be a hit if the shift in the ∆T m was at least 0.50°C [55].
(In general: In DSF a fluorescence change marks the thermal transition of the protein.)

Test [4] addresses T2, USP7. The experiment in a line: Differential scanning fluorimetry (DSF), melting temperature shift of USP7. In kind it is binding. The conditions noted are these: 8 µM protein, 250 µM compound (1:31.25). From the text: The influence of the synthesized compounds on the melting temperature (T m) of USP7 and its mutant USP7asoc (active site only cysteine) was investigated by DSF. USP7asoc only retains the catalytic Cys223 while all the other six cysteines are mutated to serine. DSF was selected for initial assessment since it is an efficient and rapid primary screening method readily available to our lab.
An important consideration when assessing covalent inhibitors is the time dependence of covalent target occupancy and thus potency, which is determined by the reaction kinetics of the covalent binding event. To allow for drawing conclusions on compounds with slower reaction kinetics, incubation times of 30 min, 4 h, and 24 h at 20°C were chosen for the DSF screen with USP7 (Table 1 and Figures 2 and 3). The threshold at which compounds were considered (de‐)stabilizers was defined at 0.5°C. In parallel, the intrinsic reactivity of a set of representative compounds was evaluated in a glutathione reactivity assay. […] Data obtained from the GSH reactivity studies are shown in Supporting Information S2: Table S2.1 and Figures S2.1–2.3.
The melting temperatures of USP7 and USP7asoc in the presence or absence of fragments were determined by DSF on a Qiagen Rotor‐Q Model‐5‐Plex HRM real‐time PCR instrument (Qiagen, Hilden, Germany). SYPRO Orange (Life Technologies Corporation, Eugene, OR, USA) was used as a fluorescent dye at a final concentration of 5x. The protein concentration was 8 µM, and the final compound concentration was 250 µM, corresponding to a protein‐to‐compound ratio of 1:31.25. All compounds were dissolved in dimethyl sulfoxide (DMSO) and the proteins in Tris buffer (25 mM Tris pH 8.0, 150 mM NaCl, 5 mM TCEP, 5% (v/v) DMSO). All measurements were performed after 30 min, 4 h, and 24 h of incubation and at least in triplicate. DSF experiments were carried out with a constant heating rate of 270°C/h. The temperature was ramped from 28°C to 60°C–70°C with excitation and emission filters set at 470 nm and 610 nm, respectively. The melting temperatures (T m) of USP7 and USP7asoc were determined from the maxima of the first derivatives of the melting curves in OriginPro2020 (OriginLab, Northampton, MA, USA). The ∆T m was calculated by subtraction of the T m of the protein sample with pure DMSO from the T m of the protein sample mixed with compound. Error propagation was used to average multiple runs for a compound. A compound was considered to be a hit if the shift in the ∆T m was at least 0.50°C [55].

For test [5], the target named is T2, USP7. The test can be described thus: Intact protein MS (UHPLC-ESI-MS), covalent modification of USP7. In kind it is binding. The conditions noted are these: 24 h incubation at 20°C, protein-to-compound ratio 1:31.25. Here is the method:
The DSF results described above were validated by UHPLC‐ESI‐MS to verify possible covalent binding through a corresponding mass shift. Intact protein MS is an important screening method in irreversible‐covalent hit identification and is especially suitable for covalent fragment‐based drug discovery (FBDD). It allows for the identification of covalent binders by detecting covalent protein‐compound adducts, thus making use of the stability of the covalent bond.
USP7 was prepared in Tris buffer (25 mM Tris pH 8.0, 150 mM NaCl, 5 mM TCEP) with a protein‐to‐compound ratio of 1:31.25 and 5% (v/v) DMSO. The protein‐compound mixtures were all incubated at 20°C for 24 h on a rotating shaker. The analysis of intact protein mass was carried out using UHPLC‐ESI‐MS measurements, with data acquisition and data analysis as previously described.

For test [6], the target named is T1, USP7asoc. The test can be described thus: Intact protein MS (UHPLC-ESI-MS), covalent modification of USP7asoc. In kind it is binding. The conditions noted are these: 24 h incubation at 20°C, protein-to-compound ratio 1:31.25. Here is the method:
The DSF results described above were validated by UHPLC‐ESI‐MS to verify possible covalent binding through a corresponding mass shift. Intact protein MS is an important screening method in irreversible‐covalent hit identification and is especially suitable for covalent fragment‐based drug discovery (FBDD). It allows for the identification of covalent binders by detecting covalent protein‐compound adducts, thus making use of the stability of the covalent bond. USP7 was prepared in Tris buffer (25 mM Tris pH 8.0, 150 mM NaCl, 5 mM TCEP) with a protein‐to‐compound ratio of 1:31.25 and 5% (v/v) DMSO. The protein‐compound mixtures were all incubated at 20°C for 24 h on a rotating shaker. The analysis of intact protein mass was carried out using UHPLC‐ESI‐MS measurements, with data acquisition and data analysis as previously described.

Values joined by “and” are separate entries in the source; they are usually repeats but may differ in a detail not shown here. Equal values may be shown once. Read-outs that look alike come from different tables or passages of the source.

T1 sequence (Q93009 with tags, fused parts or gaps C300S/C315S/C334S/C478S/C488S/C510S): as the sequence (Q93009 with tags, fused parts or gaps) above, with C96S, C111S, C130S, C274S, C284S, C306S counted along it

For `Cn1cc(-c2cccc3cnc(Nc4nc(Cl)ccc4[N+](=O)[O-])cc23)cn1` [8a, N‐(6‐Chloro‐3‐nitropyridin‐2‐yl)‐5‐(1‐methyl‐1H‐pyrazol‐4‐yl)isoquinolin‐3‐amine], the “protein species in deconvoluted mass spectrum of USP7asoc” value (“protein species … of USP7asoc” below) in test [1] is given as “unmodified protein species as the main peak”. The “protein species in deconvoluted mass spectrum of USP7” value in test [2] is “unmodified and mono‐arylated protein species were visible with nearly the same intensity”. Further, the “∆T m ± SD USP7asoc” value is 0.10 ± 0.27 °C in test [3] (30 min incubation at 20°C), 0.10 ± 0.09 °C in test [3] (4 h incubation at 20°C) and 0.10 ± 0.09 °C in test [3] (24 h incubation at 20°C). The “∆T m ± SD USP7” value is 0.20 ± 0.09 °C in test [4] (30 min incubation at 20°C), 0.45 ± 0 °C in test [4] (4 h incubation at 20°C) and 0.20 ± 0.09 °C in test [4] (24 h incubation at 20°C).

As for `CCCn1cc(-c2cccc3cnc(Nc4nc(Cl)ccc4[N+](=O)[O-])cc23)cn1` [8d, N‐(6‐Chloro‐3‐nitropyridin‐2‐yl)‐5‐(1‐propyl‐1H‐pyrazol‐4‐yl)isoquinolin‐3‐amine], in test [5], the “protein species in deconvoluted mass spectrum of USP7” value was “unmodified USP7 and USP7asoc were again dominant”. Besides, the entries for the “∆T m ± SD USP7asoc” value in test [3] (30 min incubation at 20°C), in test [3] (4 h incubation at 20°C) and in test [3] (24 h incubation at 20°C) were “–0.20 ± 0.09 °C”, 0.45 ± 0.12 °C and 0.42 ± 0.16 °C, respectively. Further, the figures for the “∆T m ± SD USP7” value in test [4] (30 min incubation at 20°C), in test [4] (4 h incubation at 20°C) and in test [4] (24 h incubation at 20°C) were 0.25 ± 0.09 °C, 0.30 ± 0 °C and 0.25 ± 0.09 °C, respectively. For the same molecule, the “protein species … of USP7asoc” value in test [6] is “unmodified USP7 and USP7asoc were again dominant”.

In the case of `O=[N+]([O-])c1ccc(Cl)nc1Nc1cc2c(-c3ccc4ccccc4c3)cccc2cn1` [8g, N‐(6‐Chloro‐3‐nitropyridin‐2‐yl)‐5‐(naphthalen‐2‐yl)isoquinolin‐3‐amine], the “protein species in deconvoluted mass spectrum of USP7” value in test [5] is “only unmodified USP7 and USP7asoc were detected”. Besides, the “∆T m ± SD USP7asoc” value in test [3] (30 min incubation at 20°C) is 0.63 °C and 0.63 ± 0.07 °C; in test [3] (4 h incubation at 20°C) it was 0.38 ± 0.08 °C; in test [3] (24 h incubation at 20°C) it was 0.40 ± 0.17 °C. The “∆T m ± SD USP7” value in test [4] (30 min incubation at 20°C) was 0.25 ± 0.12 °C; in test [4] (4 h incubation at 20°C), 0.30 ± 0 °C; in test [4] (24 h incubation at 20°C), 0.25 ± 0.09 °C. In test [6], the “protein species … of USP7asoc” value is “only unmodified USP7 and USP7asoc were detected”.

For `O=[N+]([O-])c1ccc(Cl)nc1Nc1cc2c(-c3ccc(-c4cccnc4)cc3)cccc2cn1` [8h, N‐(6‐Chloro‐3‐nitropyridin‐2‐yl)‐5‐[4‐(pyridin‐3‐yl)phenyl]isoquinolin‐3‐amine], the “protein species in deconvoluted mass spectrum of USP7” value in test [5] was “unmodified USP7 and USP7asoc as the main peak”. In addition, the “∆T m ± SD USP7asoc” value in test [3] (30 min incubation at 20°C) worked out at 0.15 ± 0 °C; in test [3] (4 h incubation at 20°C), 0.35 ± 0.09 °C; in test [3] (24 h incubation at 20°C) it was 0.28 ± 0.04 °C. Also, the “∆T m ± SD USP7” value in test [4] (30 min incubation at 20°C) was “–0.25 ± 0.09 °C”; in test [4] (4 h incubation at 20°C) it was 0.00 ± 0 °C; in test [4] (24 h incubation at 20°C), 0.05 ± 0.09 °C. Moreover, the “protein species … of USP7asoc” value in test [6] is “unmodified USP7 and USP7asoc as the main peak”.

`O=[N+]([O-])c1ccc(Cl)nc1Nc1cc2c(-c3ccc(-c4ccncc4)cc3)cccc2cn1` [8i, N‐(6‐Chloro‐3‐nitropyridin‐2‐yl)‐5‐[4‐(pyridin‐4‐yl)phenyl]isoquinolin‐3‐amine]: in test [5], the “protein species in deconvoluted mass spectrum of USP7” value was “unmodified USP7 and USP7asoc as the main peak”. The “∆T m ± SD USP7asoc” value in test [3] (30 min incubation at 20°C) is 0.10 ± 0.17 °C; in test [3] (4 h incubation at 20°C), “–0.15 ± 0.15 °C”; in test [3] (24 h incubation at 20°C), “–0.15 ± 0.12 °C”. Further, the “∆T m ± SD USP7” value is 0.05 ± 0.09 °C in test [4] (30 min incubation at 20°C) and “–0.03 ± 0.11 °C” in test [4] (24 h incubation at 20°C). Further, the “protein species … of USP7asoc” value in test [6] is “unmodified USP7 and USP7asoc as the main peak”.
